Measured values taken from US6825230B2, “Spiro and dispiro 1,2,4-trixolane antimalarials” (Medicines for Malaria Venture MMV, priority 2002, dated 2004).
Converted amounts (≈) assume the structure as drawn. Where a name gives a salt, the structure may show the parent alone. Read-outs that look alike come from different tables or passages of the source.

How the values were obtained:
[1] = system: chloroquine-sensitive NF54 strain of P. falciparum; experiment: In vitro antimalarial semiautomated microdilution assay ([3H]-hypoxanthine incorporation), NF54 strain; assay type: cell-based, Plasmodium falciparum; conditions: Plasmodium falciparum
Method: (§1) Various OZ compounds were tested by the semiautomated microdilution assay against intraerythrocytic forms of Plasmodium falciparum derived from asynchronous stock cultures.
(§2) Fifty percent inhibitory concentration (IC50) were estimated by Logit regression analysis.

[2] = system: ANKA strain of P. berghei; experiment: Single dose STI in vivo screen in infected mice; parameters: species or system Plasmodium berghei; conditions: for Survival (days) 10 mg/kg po: single 10 mg/kg po in 3% ethanol and 7% Tween 80; for Survival (days) 10 mg/kg po / Survival (days) 10 mg/kg SSV po / Survival (days) 10 mg/kg sc: untreated 6-7 days; for Activity (%) 10 mg/kg po: single 10 mg/kg po in 3% ethanol and 7% Tween 80 on day 1 post-infection; for Activity (%) 10 mg/kg po / Activity (%) 10 mg/kg SSV po / Activity (%) 10 mg/kg sc / Activity (%) 3 mg/kg SSV po: percent reduction in parasitemia on day 3; for Survival (days) 10 mg/kg SSV po: single 10 mg/kg po in SSV; for Activity (%) 10 mg/kg SSV po: single 10 mg/kg po in standard suspending vehicle (SSV) on day 1 post-infection; for Survival (days) 10 mg/kg sc: single 10 mg/kg sc in 3% ethanol and 7% Tween 80; for Activity (%) 10 mg/kg sc: single 10 mg/kg sc in 3% ethanol and 7% Tween 80 on day 1 post-infection; for Survival (days) 3 mg/kg SSV po / Activity (%) 3 mg/kg SSV po: single 3 mg/kg po in SSV
[3] = system: chloroquine-resistant K1 strain of P. falciparum; experiment: In vitro antimalarial semiautomated microdilution assay ([3H]-hypoxanthine incorporation), K1 strain; assay type: cell-based, Plasmodium falciparum; conditions: Plasmodium falciparum
Method: as §1, §2

[4] = chloroquine-sensitive NF54 strain, 72 h incubation, read-out: IC50 (ng/ml) NF54
[5] = chloroquine-resistant K1 strain, 72 h incubation, read-out: IC50 (ng/ml) K1
[6] = NF54, 72 h, read-out: IC50 (ng/ml) NF54, chloroquine-sensitive NF54 strain, 72 h incubation
[7] = K1, 72 h, read-out: IC50 (ng/ml) K1, chloroquine-resistant K1 strain, 72 h incubation

Compound	IC50 [1, 4]	Survival (days) 10 mg/kg po [2]	Activity (%) 10 mg/kg po [2]	Survival (days) 10 mg/kg SSV po [2]	Activity (%) 10 mg/kg SSV po [2]	Survival (days) 10 mg/kg sc [2]	Activity (%) 10 mg/kg sc [2]	IC50 [3, 5]	Survival (days) 3 mg/kg SSV po [2]	Activity (%) 3 mg/kg SSV po [2]	IC50 [1, 6]	IC50 [3, 7]
O=S(=O)(C[C@H]1CC[C@]2(CC1)OOC1(O2)C2CC3CC(C2)CC1C3)c1ccccc1 (some centres unmarked) [OZ210]	1.6 ng/mL (≈ 3.82 nM)	9.3 days	99.23%	8.0 days	77%	10.3 days	99.94%	1.4 ng/mL (≈ 3.34 nM)	–	–	–	–
O=C1CN(C(=O)C[C@H]2CC[C@]3(CC2)OO[C@]2(O3)C3CC4CC(C3)CC2C4)CCN1 [OZ296]	0.89 ng/mL (≈ 2.2 nM)	–	–	10.0 days	99.22%	–	–	0.6 ng/mL (≈ 1.48 nM)	9.2 days	90%	–	–
CN(C)C(=O)NC[C@H]1CC[C@]2(CC1)OOC1(O2)C2CC3CC(C2)CC1C3 (some centres unmarked) [OZ266]	1.5 ng/mL (≈ 4.12 nM)	13.7 days	99%	11.7 days	99.39%	11.7 days	99.75%	1.1 ng/mL (≈ 3.02 nM)	–	–	–	–
N=C(N)N1CCC2(CC1)OOC1(O2)C2CC3CC(C2)CC1C3 (centres unmarked) [OZ191, Adamantane-2-spiro-3′-8′-amidino-1′,2′,4′-trioxa-8′-azaspiro[4.5]decane hydrochloride]	–	5.7 days	7%	5.7 days	5%	6.0 days	17%	–	–	–	> 10 ng/mL	6 ng/mL
O=C(NCCO)[C@H]1CC[C@]2(CC1)OOC1(O2)C2CC3CC(C2)CC1C3 (some centres unmarked) [OZ155]	–	6.3 days	53%	7.0 days	53%	8.3 days	73%	–	–	–	> 10 ng/mL	12 ng/mL (≈ 34.1 nM)
COC(=O)C1(c2ccccc2)CCC2(CC1)OOC1(O2)C2CC3CC(C2)CC1C3 (centres unmarked) [OZ98]	–	6.3 days	72%	5.3 days	11%	7.3 days	77%	–	–	–	0.9 ng/mL (≈ 2.26 nM)	2.3 ng/mL (≈ 5.77 nM)
O=C(O)c1cncn1C[C@H]1CC[C@]2(CC1)OOC1(O2)C2CC3CC(C2)CC1C3 (stereo partly drawn) [OZ231, cis-Adamantane-2-spiro-3′-8′-(5′-carboxy-1′H-imidazol-1′-ylmethyl)-1′,2′,4′-30 trioxaspiro[4.5]decane]	–	5.3 days	0/0/0%	5.7 days	0/0/0%	6.0 days	0/0/0%	–	–	–	> 10 ng/mL	> 10 ng/mL
O=C(NC[C@H]1CC[C@]2(CC1)OOC1(O2)C2CC3CC(C2)CC1C3)c1ccncc1 (some centres unmarked) [OZ255]	1.1 ng/mL (≈ 2.76 nM)	9.0 days	99.61%	8.7 days	99.54%	10.0 days	99.92%	2.2 ng/mL (≈ 5.52 nM)	–	–	–	–
c1ccc2c(c1)-c1ccccc1C21OOC2(O1)C1CC3CC(C1)CC2C3 (centres unmarked) [OZ94, Adamantane-2-spiro-3′-1′,2′,4′-trioxolane-5′-spiro-9″-fluorene]	–	6.0 days	21%	5.7 days	0%	5.3 days	11%	–	–	–	28 ng/mL (≈ 80.8 nM)	57 ng/mL (≈ 165 nM)
O=C(CN1C(=O)c2ccccc2C1=O)N1CCC2(CC1)OOC1(O2)C2CC3CC(C2)CC1C3 (centres unmarked) [OZ93, Adamantane-2-spiro-3′-8′-(phthalimidoacetyl)-1′,2′,4′-trioxa-8′-azaspiro[4.5]decane]	–	6.7 days	57%	6.0 days	3%	13.3 days	100%	–	–	–	0.92 ng/mL (≈ 2.03 nM)	3.3 ng/mL (≈ 7.29 nM)
O=S(=O)(Cc1ccccc1)N1CCC2(CC1)OOC1(O2)C2CC3CC(C2)CC1C3 (centres unmarked) [OZ131, Adamantane-2-spiro-3′-8′-phenylmethanesulfonyl-1′,2′,4′-trioxa-8′-azaspiro[4.5]decane]	–	5.7 days	21%	6.0 days	41%	8.0 days	90%	–	–	–	4.1 ng/mL (≈ 9.77 nM)	1.7 ng/mL (≈ 4.05 nM)
N#Cc1ccc(C2(c3ccccc3)OOC3(O2)C2CC4CC(C2)CC3C4)cc1 (centres unmarked) [OZ124]	1.7 ng/mL (≈ 4.55 nM)	6.3 days	72%	5.3 days	17%	7.0 days	86%	2.1 ng/mL (≈ 5.62 nM)	–	–	–	–
[N-]=[N+]=NCC[C@H]1CC[C@]2(CC1)OOC1(O2)C2CC3CC(C2)CC1C3 (some centres unmarked) [OZ228]	–	10.3 days	99.94%	6.0 days	28%	14.0 days	99.94%	–	–	–	2.1 ng/mL (≈ 6.3 nM)	2 ng/mL (≈ 6 nM)
O=C(O)c1nccnc1C(=O)N1CCC2(CC1)OOC1(O2)C2CC3CC(C2)CC1C3 (centres unmarked) [OZ109, Adamantane-2-spiro-3′-8′-[(3′-carboxypyrazinyl)carbonyl]-1′,2′,4′-trioxa-8′-azaspiro[4.5]decane]	–	5.7 days	2%	5.7 days	0%	6.3 days	24%	–	–	–	24 ng/mL (≈ 57.8 nM)	21 ng/mL (≈ 50.5 nM)
C1C2CC3CC1CC(C2)C31OOC2(CCC(NC3CC3)CC2)O1 (centres unmarked) [OZ185]	–	7.7 days	86%	6.7 days	56%	10.7 days	99.96%	–	–	–	1.4 ng/mL (≈ 4.38 nM)	1.1 ng/mL (≈ 3.44 nM)
O=C(C[C@H]1CC[C@]2(CC1)OO[C@]1(O2)C2CC3CC(C2)CC1C3)N1CCC(O)CC1 [OZ297]	0.76 ng/mL (≈ 1.87 nM)	–	–	9.8 days	99.69%	–	–	0.49 ng/mL (≈ 1.21 nM)	7.6 days	83%	–	–
CN(C)S(=O)(=O)N1CCC2(CC1)OOC1(O2)C2CC3CC(C2)CC1C3 (centres unmarked) [OZ190, Adamantane-2-spiro-3′-8′-(dimethylaminosulfonyl)-1′,2′,4′-trioxa-8′-azaspiro[4.5]decane]	–	8.7 days	98%	7.7 days	78%	5.7 days	2%	–	–	–	1 ng/mL (≈ 2.68 nM)	0.16 ng/mL (≈ 0.43 nM)
c1ccc(CNC[C@H]2CC[C@]3(CC2)OO[C@]2(O3)C3CC4CC(C3)CC2C4)nc1 [OZ292]	0.26 ng/mL (≈ 0.676 nM)	–	–	7.0 days	74%	–	–	0.19 ng/mL (≈ 0.494 nM)	6.6 days	46%	–	–
CN(C)C(=O)N[C@H]1CC[C@]2(CC1)OOC1(O2)C2CC3CC(C2)CC1C3 (some centres unmarked) [OZ187]	–	7.7 days	77%	10.0 days	94%	7.0 days	77%	–	–	–	6.8 ng/mL (≈ 19.4 nM)	4 ng/mL (≈ 11.4 nM)
CC(=O)Nc1ccc(S(=O)(=O)N2CCC3(CC2)OOC2(O3)C3CC4CC(C3)CC2C4)cc1 (centres unmarked) [OZ104, Adamantane-2-spiro-3′-8′-[[4-(acetylamino)phenyl]sulfonyl]-1′,2′,4′-trioxa-8′-azaspiro[4.5]decane]	–	6.3 days	56%	5.7 days	0%	12.0 days	99.98%	–	–	–	0.5 ng/mL (≈ 1.08 nM)	1.4 ng/mL (≈ 3.03 nM)
NC(=O)N[C@H]1CC[C@]2(CC1)OOC1(O2)C2CC3CC(C2)CC1C3 (some centres unmarked) [OZ221]	> 10 ng/mL	6.3 days	80%	7.0 days	87%	8.0 days	97%	> 10 ng/mL	–	–	–	–
O=C1c2ccccc2S(=O)(=O)N1C[C@H]1CC[C@]2(CC1)OOC1(O2)C2CC3CC(C2)CC1C3 (some centres unmarked) [OZ212]	2.9 ng/mL (≈ 6.31 nM)	6.7 days	66%	6.7 days	25%	8.0 days	59%	2.7 ng/mL (≈ 5.88 nM)	–	–	–	–
